{"source": "patent US6491840B1", "about": "“Polymer compositions having specified PH for improved dispensing and improved stability of wrinkle reducing compositions and methods of use” (The Procter & Gamble Company, priority 2000, dated 2002)", "origin": "cited, not measured here", "data": [{"smiles": "ClC=CC[N+]12CN3CN(CN(C3)C1)C2.[Cl-]", "note": "[Dowicil 200, 1-(3-Chlorallyl)-3,5,7-triaza-1-azoniaadamantane chloride]", "values": [{"measurement": "solubility in water", "result": "freely soluble in water"}]}]}
